Data set [1] relates to S. aureus virulence gene expression (agr; RNAIII, hla, spa reporters). Briefly: Agar diffusion reporter assay, overall activity on the three reporters. The format is cell-based, Staphylococcus aureus. The following applies: TSA plates with RNAIII::lacZ, hla::lacZ and spa::lacZ reporters, 10 μg/well (500 μg/ml; 20 μl/well). For orientation: In agar diffusion tests the substance spreads into inoculated agar from a disc or well.
Method: The reporter assay was conducted as described by Nielsen et al. (2010) using three different lacZ transcriptional reporter strains, PC203, PC322 and SH101F[37]. Test compounds dissolved in H2O or DMSO was added to agar wells at indicated concentrations and solvent only was included as a control. Incubation until blue color appeared in plates varied from 9 h to 48 h. The ability of the peptidomimetics to influence virulence gene expression was observed based on the color change around the wells; a white halo represents downregulation of virulence gene expression, while a blue halo represents upregulation of expression, with the size of the halo being indicative of the degree of interference.

The subject of data set [2] is 8325-4 and RN10829 WT S. aureus strains. As to the kind of experiment: Minimum Inhibitory Concentration (MIC). The format is cell-based, Staphylococcus aureus. The following applies: TSB, two-fold dilution series 4 to 256 μg/ml, approx. 5 × 10^5 CFU/ml, 24 hours at 37 °C; lowest concentration with no growth; values identical for 8325-4 and RN10829 WT. As for the experimental part: Overnight cultures (24 h, 37 °C, 200 rpm in TSB) of S. aureus strains were diluted 5000X in fresh TSB and was aliquoted into 96-well microtiter plates with two-fold dilution series of the peptidomimetics ranging from 4 μg/ml to 256 μg/ml (final concentration) to reach an initial cell density of approximately 5 × 10^5 CFU/ml. DMSO was used as control and the plate was incubated for 24 hours at 37 °C. The MICs of the peptidomimetics were recorded as the lowest concentration for which no bacterial growth was observed.
Supplementary Table S2: Minimum Inhibitory Concentration (MIC) of the peptidomimetics tested on 8325-4 and RN10829 WT S. aureus strains (MIC values were identical for both strains, thus are represented here in one column).

Data set [3] in a line: RP-HPLC retention time (hydrophobicity). The settings on record: analytical RP-HPLC; used by the paper as a measure of hydrophobicity. The format is physicochemical. As for the experimental part: The synthesis of the peptidomimetics was performed as described by Oddo et al. (2015)[51]. According to this, a combination of Fmoc Solid Phase Peptide Synthesis (SPPS) and sub-monomer approach was applied. After the synthesis, the peptidomimetics were purified (>95%) by preparative HPLC and the purity was determined through analytical HPLC. Moreover, the MALDI-TOF-MS was used in order to verify the identity of the peptidomimetics.

Experimental findings from publication PMC5824847, “Linear peptidomimetics as potent antagonists of Staphylococcus aureus agr quorum sensing” (Scientific Reports, 2018) are described below.

Structures are written as SMILES. Converted amounts (≈) assume the structure as drawn. “Also recorded” adds a separate entry of the source. Square brackets hold non-standard residues; d marks the D form. Peptide text beside a SMILES is read from it. N(1-naphthylmethyl)Gly = O=C(O)CNCc1cccc2ccccc12; N(4-MeBn)Gly = Cc1ccc(CNCC(=O)O)cc1; NBuGly = CCCCNCC(=O)O

A word on the MIC: it is the smallest concentration in the dilution series that meets the test's criterion for growth inhibition. A lower MIC goes with inhibition by little substance. Regarding `CCCCN(CC(=O)N(CC(=O)NCC(N)=O)Cc1cccc2ccccc12)C(=O)[C@H](CCCCN)NC(=O)[C@H](CCCCN)NC(=O)CN(Cc1ccc(C)cc1)C(=O)CNCc1cccc2ccccc12` [G7] (H-[N(1-naphthylmethyl)Gly][N(4-MeBn)Gly]KK[NBuGly][N(1-naphthylmethyl)Gly]G-NH2), in data set [1], the “Activity on virulence gene expression (agr modulatory activity), overall” value is recorded as “increased activity; also recorded: greatly improved agr-inhibitory activity compared to D3”. The MIC in data set [2] came out at 64 µg/mL (≈ 64 µM). In addition, the “Rt (RP-HPLC retention time)” value in data set [3] is 17.5 min.
